From article PMC8129988 (Inorganic Chemistry Frontiers, 2021)
Read-outs that look alike come from different tables or passages of the source.

Key:
[1] = test system: p-ERK1/2 and p-S6 in K-562 cells; assay: western blot of downstream signalling, 12 h; format: cell-based, human; conditions: K-562, 12 h, western blot
Experimental: Fig. 10 Impact of the cobalt(III) complexes on the ERK1/2 and S6 under normoxic and hypoxic conditions. K-562 cells were treated with the compounds, after 12 h cell lysates were prepared and protein expression as well as phosphorylation levels of downstream pathways (p-ERK1/2 and p-S6) analyzed by western blotting. One representative experiment out of three is shown. The ratio of phosphorylated to total protein is given between the respective lanes.
K-562 cells were plated (5 × 10^5 cells per well) in 6-well plates and allowed to recover for 24 h. Subsequently, the cells were treated with the drugs in different concentrations. After 12 h cells were harvested, proteins were isolated, resolved by sodium dodecyl sulfate polyacrylamide gel electrophoresis (SDS/PAGE), and transferred onto a polyvinylidene difluoride membrane for western blotting. The following antibodies were used: ERK1/2 (p44/42) rabbit monoclonal antibody (mAb) (137F5, #4695), phospho-ERK1/2 rabbit mAb (Thr202/Tyr204) (20G11, #4376), phospho-S6 rabbit pAb (Ser240/244, #2215) (Cell Signaling Technology, Beverly, MA, USA), S6 mouse mAb (C-8. #sc-74459) (Santa Cruz Biotechnology, TX, USA) and β-actin mouse mAb (#A5441, Sigma). All primary antibodies were used in 1 : 1000 dilutions (in Tris-buffered saline containing 0.1% Tween20 (TBST) + 3% bovine serum albumin (BSA)). Secondary goat anti-mouse-IgG (Fc specific)-peroxidase antibody (#A0168, Sigma) and horseradish peroxidase(HRP)-labeled mouse anti-rabbit IgG (#sc-2357, Santa Cruz Biotechnology) were used at working dilutions of 1 : 10 000 (in TBST + 1% BSA).

UM-UC-14 cells = assay: ligand release by UV fluorescence microscopy; format: cell-based, human; conditions: 10 μM, 24 h, UM-UC-14, fluorescence microscopy
Experimental: The enhanced stability of Co(acac)2LPon under normoxia and its hypoxia-induced ligand release was subsequently confirmed by fluorescence microscopy. Fluorescence intensities indicated a ∼2.8-fold decreased stability of the cobalt(III) complex under hypoxic vs. normoxic cell culture conditions.
UM-UC-14 cells were seeded (2.5 × 10^5 cells per well) in 12-well plates and after 24 h recovery treated with 10 μM of compounds. After 24 h incubation, the drug solutions were removed, cells were washed with PBS and microphotographs of the different treatments were taken using UV fluorescence microscopy (Nikon Eclipse Ti2 microscope with a DAPI filter and a high-pressure mercury lamp) and a 20× objective. The level of cellular fluorescence was determined from fluorescence microscopy images using ImageJ software.
Figure S9: Ligand release of Co(acac)2LPon under normoxic and hypoxic cell culture conditions in comparison to LPon using UV fluorescence microscopy. UM-UC-14 cells were incubated with 10 µM of compounds for 24 h. Images of the different treatments were taken by UV fluorescence microcopy (20X objective) and the corrected total cell fluorescence was evaluated using ImageJ software. Data in Figure S9B are given as means ± SD of ten analyzed microphotographs per compound. Statistical significance was calculated by unpaired t test with p < .05(*). […]

[2] = test system: BCR-ABL-positive K-562 leukemic cells; assay: MTT vitality assay, 72 h, normoxic vs hypoxic; format: cell-based; conditions: Homo sapiens, K562, 72 h, printed in picture Fig. 9A, read-out: IC50, K-562 cell viability
Experimental: In case of hypoxic cell culture conditions, plated and treated cells were incubated at 37 °C, 5% CO2 and 0.1% O2 (ProOx Model C21 system, BioSpherix) in humidified incubators for the indicated time point before analysis. All investigated compounds were dissolved in dimethyl sulfoxide (DMSO) as 10 mM stock solutions and were stored at −20 °C. Dilutions in culture media supplemented with 10% fetal calf serum were made immediately before the experiments at the indicated concentrations. Corresponding dilutions of DMSO were used as untreated vehicle controls.
Cells were seeded (3–7 × 10^4 cells per well) in 96-well plates and after 24 h recovery treated with increasing concentrations of compounds in triplicates. After 72 h drug exposure under normoxic or hypoxic cell culture conditions (0.1% O2) (ProOx Model C21 system, BioSpherix), the proportion of viable cells was determined by 3-(4,5-dimethylthiazol-2-yl)-2,5-diphenyltetrazolium bromide (MTT)-vitality assay (EZ4U, Biomedica, Vienna, Austria) or by luminescence assay based on adenosine triphosphate quantification (CellTiter-Glo, Promega, Madison, Wisconsin) following the manufacturer's recommendations. […] MTT-derived cytotoxicity was expressed as IC50 values calculated from full dose–response curves using GraphPad Prism software (La Jolla, CA).

FGFR1 = FGFR1 (Homo sapiens, UniProt P11362); assay: cell-free kinase inhibition assay (Z'-LYTE, SelectScreen); format: biochemical
Description: (§1) The test compounds were screened in a final concentration of 1% DMSO using the Z′-LYTE® Assay.

ABL1 = ABL1 (Homo sapiens, UniProt P00519); assay: as above; format: biochemical; conditions: 10-fold excess of ATP, 1% DMSO, read-out: IC50 against ABL1
Description: as §1

H1975 = conditions: cited from earlier work
A431 = conditions: cited from earlier work
[3] = serum stability in fetal calf serum (HPLC-MS); format: in vitro ADME; conditions: 37 °C
Experimental: Therefore, we only investigated the stability of the novel complexes in fetal calf serum (FCS). As reference again Co(acac)2LEGFR[26] was included. The complexes were dissolved in 50 mM phosphate puffer and mixed 1 : 10 with fetal calf serum (FCS; buffered with 150 mM phosphate buffer to keep a stable pH of 7.4) to a final concentration of 50 μM. The samples were incubated at 37 °C and after 0, 2, 4, 6, 24 and 26 h extracted with acetonitrile and measured by HPLC-MS. […] This indeed confirms, that by avoiding the direct attachment of the ethylenediamine moiety to an aromatic ring system, complexes with much higher stability can be generated. Since no distinct difference in stability between Co(acac)2LPon and Co(Meacac)2LPon within 26 h could be observed, measurements were repeated up to 72 h.
For serum stability measurements, 135 μL FCS, buffered with 150 mM phosphate (Na2HPO4/NaH2PO4) to maintain a pH value of 7.4, were mixed with 15 μL of a 500 μM stock solution of the respective complex in 50 mM phosphate buffer to reach a final concentration of 50 μM. The samples were incubated at 37 °C. At different time points to 20 μL serum 40 μL of ACN were added. After vigorously shaking for 2 min the suspension was centrifuged at 6000 rpm for 10 min. The supernatant was taken with a syringe and directly measured via HPLC-MS. The samples were analyzed on an Agilent 1260 Infinity system using a Waters Atlantis T3 column (150 mm × 4.6 mm) coupled to a Bruker Amazon SL ESI-IT mass spectrometer. Water and acetonitrile (both containing 0.1% formic acid) were used as eluents with a gradient of 1–99% acetonitrile within 29 min.

cyclic voltammetry = format: physicochemical; conditions: DMF, 0.2 M [n-Bu4N][BF4], 1.5 mM complex, scan rate 100 mV s^-1
Experimental: Since the redox potential is a crucial characteristic for the activation of cobalt(III)-based prodrugs systems, we investigated the novel complexes by cyclic voltammetry in comparison to Co(acac)2LEGFR. Measurements were performed in dimethylformamide (DMF) (+0.2 M [n-Bu4N][BF4]) at a scan speed of 100 mV s^−1. […] Even at a higher scan speed of 1000 mV s^−1, the redox processes were still completely irreversible for all complexes (Fig. S5 ^†).
The compounds were dissolved in DMF (+0.2 M [n-Bu4N][BF4]) to obtain a final concentration of 1.5 mM. Electrochemical experiments were conducted on an EG&G PARC 273A potentiostat/galvanostat with a scan rate of 100–1000 mV s^−1 at room temperature. Argon was bubbled through the solution before every measurement to remove oxygen. A three-electrode configuration cell was used with a glassy carbon electrode as working electrode, which was polished before every measurement. The reference electrode was Ag/Ag^+/ACN (10 mM AgNO3) and the auxiliary electrode was a platinum wire. The potentials were referenced to an internal standard redox couple of ferrocenium/ferrocene and calculated to the NHE (E1/2 = +0.72 V vs. NHE).[63] […] Redox potentials measured relative to the Ag/AgCl/KCl (3.5 M) reference electrode and converted to the NHE using +0.205 V. Measurements were at least repeated three times and the mean values were calculated.

K-562 cells = assay: cell-associated LPon fluorescence by flow cytometry (ligand release); format: cell-based, human; conditions: 24 h, 10 μM, normoxic
Experimental: Prior to the evaluation of the anticancer activity of our novel derivatives in cell culture models, we examined the stability of Co(acac)2LPon and Co(Meacac)2LPon in the presence of cells under normoxic conditions. The stability was determined by the appearance of LPon-associated fluorescence (vide supra) in BCR-ABL-driven K-562 leukemia cells via flow cytometry. […] Despite significant LPon-release from the two complexes over time (up to 24 h), in case of Co(Meacac)2LPon cell-associated fluorescence remained more than 7.5-fold lower after 24 h as compared to the free ligand.
Next, the impact of hypoxia on the stability of our novel derivatives was evaluated by monitoring intracellular fluorescence intensities under normoxic (21% O2) vs. hypoxic (0.1% O2) conditions. […] Hypoxic fluorescence activation in case of both cobalt(III) complexes was time-dependent, reaching significance after 6 h of compound incubation and resulting in 2- to 4-fold higher intensities.
Cells were seeded (1 × 10^6 cells per well) in 96-well plates, dissolved compounds were added and cells were incubated under normoxic or hypoxic cell culture conditions. Samples were measured on a BD LSRFortessa X-20 cell analyzer high throughput sampler (HTS) (BD Biosciences, East Rutherford, NJ, USA). Compound fluorescence was detected using 405 nm excitation and pacific blue (450/50 nm) band pass emission filters. […]

[4] = normoxic as well as hypoxic conditions

FGFR1, sequence (P11362 22-822): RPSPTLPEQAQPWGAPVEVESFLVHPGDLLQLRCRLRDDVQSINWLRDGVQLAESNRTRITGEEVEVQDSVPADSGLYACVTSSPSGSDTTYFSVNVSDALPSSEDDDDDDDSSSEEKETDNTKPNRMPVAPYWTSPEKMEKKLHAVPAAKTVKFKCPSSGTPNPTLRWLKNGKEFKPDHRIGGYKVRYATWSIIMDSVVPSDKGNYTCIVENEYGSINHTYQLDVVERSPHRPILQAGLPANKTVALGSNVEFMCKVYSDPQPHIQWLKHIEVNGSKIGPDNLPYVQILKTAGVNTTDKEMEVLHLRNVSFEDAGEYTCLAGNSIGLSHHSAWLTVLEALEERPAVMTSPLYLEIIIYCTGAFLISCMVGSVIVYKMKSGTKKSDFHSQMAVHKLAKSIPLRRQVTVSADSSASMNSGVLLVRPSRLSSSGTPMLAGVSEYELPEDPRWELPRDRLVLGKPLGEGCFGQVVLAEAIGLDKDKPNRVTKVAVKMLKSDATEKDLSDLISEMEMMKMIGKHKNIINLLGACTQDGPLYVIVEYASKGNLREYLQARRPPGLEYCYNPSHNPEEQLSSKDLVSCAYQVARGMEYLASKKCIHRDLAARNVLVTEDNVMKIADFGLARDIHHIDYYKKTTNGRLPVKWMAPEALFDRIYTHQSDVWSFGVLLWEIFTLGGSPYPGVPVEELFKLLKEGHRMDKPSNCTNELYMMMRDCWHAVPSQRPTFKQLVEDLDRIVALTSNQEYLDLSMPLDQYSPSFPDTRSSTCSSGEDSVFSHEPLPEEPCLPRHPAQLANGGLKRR
ABL1, sequence (P00519 whole entry): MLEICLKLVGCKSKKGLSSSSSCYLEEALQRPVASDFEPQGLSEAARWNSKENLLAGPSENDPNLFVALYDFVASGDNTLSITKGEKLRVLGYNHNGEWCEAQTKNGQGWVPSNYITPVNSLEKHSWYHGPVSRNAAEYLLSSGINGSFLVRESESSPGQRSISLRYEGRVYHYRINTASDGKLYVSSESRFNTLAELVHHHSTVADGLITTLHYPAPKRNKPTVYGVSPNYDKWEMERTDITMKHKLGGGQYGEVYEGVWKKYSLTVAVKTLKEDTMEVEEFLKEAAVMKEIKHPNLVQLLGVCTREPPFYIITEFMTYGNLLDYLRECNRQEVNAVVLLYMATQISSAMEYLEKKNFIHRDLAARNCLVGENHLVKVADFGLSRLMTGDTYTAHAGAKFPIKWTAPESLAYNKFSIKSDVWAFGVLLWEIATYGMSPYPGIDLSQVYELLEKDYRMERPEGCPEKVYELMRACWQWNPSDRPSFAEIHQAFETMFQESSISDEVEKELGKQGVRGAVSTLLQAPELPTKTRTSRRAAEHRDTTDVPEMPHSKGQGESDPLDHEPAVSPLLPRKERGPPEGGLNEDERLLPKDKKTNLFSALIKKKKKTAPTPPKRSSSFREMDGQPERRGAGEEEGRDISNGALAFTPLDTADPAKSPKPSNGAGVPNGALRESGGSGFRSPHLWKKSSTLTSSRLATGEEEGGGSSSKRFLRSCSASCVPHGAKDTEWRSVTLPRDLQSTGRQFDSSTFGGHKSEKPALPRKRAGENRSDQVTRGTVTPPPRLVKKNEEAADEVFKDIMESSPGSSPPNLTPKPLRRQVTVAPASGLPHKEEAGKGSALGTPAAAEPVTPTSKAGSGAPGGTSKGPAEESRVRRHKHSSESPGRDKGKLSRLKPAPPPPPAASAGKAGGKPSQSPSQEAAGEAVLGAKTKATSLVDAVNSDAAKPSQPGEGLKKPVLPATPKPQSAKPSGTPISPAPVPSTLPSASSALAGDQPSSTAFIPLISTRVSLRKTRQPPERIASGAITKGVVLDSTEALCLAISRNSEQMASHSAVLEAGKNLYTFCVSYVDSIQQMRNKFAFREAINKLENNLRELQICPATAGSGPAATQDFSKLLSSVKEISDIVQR

Compound: Cc1ccc(C(=O)Nc2ccc(CNCCN)c(C(F)(F)F)c2)cc1C#Cc1cnc2cccnn12 [LPon, N-(4-(((2-Aminoethyl)amino)methyl)-3-(trifluoromethyl)phenyl)-3-(imidazo[1,2-b]pyridazin-3 ylethynyl)-4-methylbenzamide·3TFA]
- activity on ERK1/2 and S6 phosphorylation, normoxic vs hypoxic [1]: equally active under the two oxygen conditions
- fluorescence intensity change (decreased stability) hypoxic vs. normoxic (UM-UC-14 cells): remained unaffected
- IC50 ([2]; hypoxic (H, 0.1% O2)): 3.67 nM
- IC50 ([2]; normoxic (N, 21% O2)): 4.57 nM
- factor by which FGFR inhibition is weaker than ponatinib (FGFR1; cell-free IC50 ratio vs ponatinib): ~5
- IC50 (FGFR1; cell-free, 10-fold excess of ATP, 1% DMSO, read-out: IC50 against FGFR1): 25.9 nM
- IC50 (ABL1): 1.93 nM

Compound: [Cl-].[Cl-].[Co+2] [CoCl2]
- cytotoxic activity (H1975): no significant cytotoxic activity
- cytotoxic activity (A431): no significant cytotoxic activity

Compound: CC(=O)[CH-]C(C)=O.CC(=O)[CH-]C(C)=O.NCCN.[Co+2] [[Co(II)(acac)2en]]
- cytotoxic activity (H1975; [4]): no significant cytotoxic activity
- cytotoxic activity (A431; [4]): no significant cytotoxic activity

Compound: CC(=O)C(C)=C(C)[O-].CC(=O)C(C)=C(C)[O-].Cc1ccc(C(=O)Nc2ccc(CNCCN)c(C(F)(F)F)c2)cc1C#Cc1cnc2cccnn12.O=C(O)C(F)(F)F.[Co+3] [Co(Meacac)2LPon, Bis(3-methyl-2,4-pentanedionato) N-(4-(((2-aminoethyl)amino)methyl)-3-(trifluoromethyl)phenyl)-3-(imidazo[1,2-b]pyridazin-3-ylethynyl)-4-methylbenzamide cobalt(III) 2,2,2-trifluoroacetate]
- intact complex remaining in FCS ([3]; 26 h, pH 7.4, 50 μM): ~90%
- intact compound remaining in FCS ([3]; 72 h, pH 7.4): ~80%
- cathodic peak potential (Co(III) to Co(II), irreversible) (cyclic voltammetry): −442 mV vs. NHE
- cell-associated fluorescence, fold lower than the free ligand (K-562 cells): more than 7.5 fold

Compound: CC(=O)[CH-]C(C)=O.CC(=O)[CH-]C(C)=O.F[P-](F)(F)(F)(F)F.NCCN.[Co+3] [[Co(III)(acac)2en]PF6]
- cytotoxic activity (H1975; [4]): no significant cytotoxic activity
- cytotoxic activity (A431; [4]): no significant cytotoxic activity
